What follows are molecules tested on U-251 (assay: Log of molar concentration leading to 50% cell death against CNS cancer U251 cell line was reported). Conditions: Homo sapiens, read-out: Log LC50 (the source's name) (converted).
Format: functional

Row | SMILES | CC50 [µM]
1 | O=C(Nc1cccc2nsnc12)c1cc2c(cc1Cl)Sc1nccn1S2(=O)=O | 44.7

These molecules were tested on COLO 205 (assay: In vitro total growth inhibition against colon cancer COLO 205 cell lines was reported.). Conditions: Homo sapiens, read-out: Log TGI (converted).
Format: functional

Row | SMILES | TGI [µM]
2 | O=C(Nc1cccc2nsnc12)c1cc2c(cc1Cl)Sc1nccn1S2(=O)=O | 30.9

The molecules below were run on HT-29 (assay: In vitro growth inhibition against colon cancer HT-29 cell line was reported.). Conditions: Homo sapiens.
Format: functional

Row | SMILES | GI50 [µM]
3 | O=C(Nc1cccc2nsnc12)c1cc2c(cc1Cl)Sc1nccn1S2(=O)=O | 2.24

What follows are molecules tested on SNB-19 (assay: In vitro total growth inhibition against CNS cancer SNB-19 cell lines was reported.). Conditions: Homo sapiens, read-out: Log TGI (converted).
Format: functional

Row | SMILES | TGI [µM]
4 | O=C(Nc1cccc2nsnc12)c1cc2c(cc1Cl)Sc1nccn1S2(=O)=O | 24.5

These molecules were tested on K562 (assay: In vitro growth inhibition against leukemia K-562 cell line was reported.). Conditions: Homo sapiens.
Format: functional

Row | SMILES | GI50 [µM]
5 | O=C(Nc1cccc2nsnc12)c1cc2c(cc1Cl)Sc1nccn1S2(=O)=O | 4.07

What follows are molecules tested on RPMI-8226 (assay: In vitro total growth inhibition against leukemia […] cell lines was reported.). Conditions: Homo sapiens, read-out: Log TGI (converted).
Format: functional

Row | SMILES | TGI [µM]
6 | O=C(Nc1cccc2nsnc12)c1cc2c(cc1Cl)Sc1nccn1S2(=O)=O | 4.07

These molecules were tested on MDA-MB-231 (assay: Log of molar concentration leading to 50% cell death against breast cancer MDA-MB-231/ATCC cell line was reported). Conditions: Homo sapiens, read-out: Log LC50 (the source's name) (converted).
Format: functional

Row | SMILES | CC50 [µM]
7 | O=C(Nc1cccc2nsnc12)c1cc2c(cc1Cl)Sc1nccn1S2(=O)=O | 53.7

These molecules were tested on NCI-H322M (assay: In vitro growth inhibition against non-small-cell lung cancer […] cell line was reported.). Conditions: Homo sapiens.
Format: functional

Row | SMILES | GI50 [µM]
8 | O=C(Nc1cccc2nsnc12)c1cc2c(cc1Cl)Sc1nccn1S2(=O)=O | 1.78

The molecules below were run on SK-MEL-28 (assay: In vitro total growth inhibition against melanoma SK-MEL-28 cell lines was reported.). Conditions: Homo sapiens, read-out: Log TGI (converted).
Format: functional

Row | SMILES | TGI [µM]
9 | O=C(Nc1cccc2nsnc12)c1cc2c(cc1Cl)Sc1nccn1S2(=O)=O | 6.76

Each molecule was assayed on SF-295 (assay: In vitro total growth inhibition against CNS cancer SF-295 cell lines was reported.). Conditions: Homo sapiens, read-out: Log TGI (converted).
Format: functional

Row | SMILES | TGI [µM]
10 | O=C(Nc1cccc2nsnc12)c1cc2c(cc1Cl)Sc1nccn1S2(=O)=O | 25.1

What follows are molecules tested on Malme-3M (assay: In vitro growth inhibition against melanoma MALME 3M cell line was reported.). Conditions: Homo sapiens.
Format: functional

Row | SMILES | GI50 [µM]
11 | O=C(Nc1cccc2nsnc12)c1cc2c(cc1Cl)Sc1nccn1S2(=O)=O | 66.1

What follows are molecules tested on Hs-578T (assay: In vitro growth inhibition against breast cancer HS 578T cell line was reported.). Conditions: Homo sapiens.
Format: functional

Row | SMILES | GI50 [µM]
12 | O=C(Nc1cccc2nsnc12)c1cc2c(cc1Cl)Sc1nccn1S2(=O)=O | 4.17

Each molecule was assayed on KM12 (assay: In vitro total growth inhibition against colon cancer KM12 cell lines was reported.). Conditions: Homo sapiens, read-out: Log TGI (converted).
Format: functional

Row | SMILES | TGI [µM]
13 | O=C(Nc1cccc2nsnc12)c1cc2c(cc1Cl)Sc1nccn1S2(=O)=O | 3.89

What follows are molecules tested on OVCAR-8 (assay: In vitro growth inhibition against ovarian cancer OVCAR-8 cell line was reported.). Conditions: Homo sapiens.
Format: functional

Row | SMILES | GI50 [µM]
14 | O=C(Nc1cccc2nsnc12)c1cc2c(cc1Cl)Sc1nccn1S2(=O)=O | 2.34

Each molecule was assayed on IGROV-1 (assay: In vitro total growth inhibition against ovarian cancer IGROV1 cell lines was reported.). Conditions: Homo sapiens, read-out: Log TGI (converted).
Format: functional

Row | SMILES | TGI [µM]
15 | O=C(Nc1cccc2nsnc12)c1cc2c(cc1Cl)Sc1nccn1S2(=O)=O | 23.4

Species on record: Homo sapiens
Experiment: In vitro total growth inhibition against non-small-cell lung cancer EKVX cell lines was reported.
Format: functional
Conditions: read-out: Log TGI (converted)

Row | SMILES | TGI [µM]
16 | O=C(Nc1cccc2nsnc12)c1cc2c(cc1Cl)Sc1nccn1S2(=O)=O | 4.68

Each molecule was assayed on TK-10 (assay: In vitro growth inhibition against renal cancer TK-10 cell line was reported.). Conditions: Homo sapiens.
Format: functional

Row | SMILES | GI50 [µM]
17 | O=C(Nc1cccc2nsnc12)c1cc2c(cc1Cl)Sc1nccn1S2(=O)=O | 10.5

These molecules were tested on NCI-H522 (assay: In vitro total growth inhibition against non-small-cell lung cancer NCI-522 cell lines was reported.). Conditions: Homo sapiens, read-out: Log TGI (converted).
Format: functional

Row | SMILES | TGI [µM]
18 | O=C(Nc1cccc2nsnc12)c1cc2c(cc1Cl)Sc1nccn1S2(=O)=O | 22.4

What follows are molecules tested on BT-549 (assay: In vitro total growth inhibition against breast cancer BT 549 cell line was reported.). Conditions: Homo sapiens, read-out: Log TGI (converted).
Format: functional

Row | SMILES | TGI [µM]
19 | O=C(Nc1cccc2nsnc12)c1cc2c(cc1Cl)Sc1nccn1S2(=O)=O | 32.4

Each molecule was assayed on HOP-62 (assay: Log of molar concentration leading to 50% cell death against non-small-cell lung cancer HOP-62 cell line was reported). Conditions: Homo sapiens, read-out: Log LC50 (the source's name) (converted).
Format: functional

Row | SMILES | CC50 [µM]
20 | O=C(Nc1cccc2nsnc12)c1cc2c(cc1Cl)Sc1nccn1S2(=O)=O | 8.71

Each molecule was assayed on Tumor Cell line (assay: Log of molar concentration leading to 50% cell death was reported). Conditions: Homo sapiens, read-out: Log LC50 (the source's name) (converted).
Format: functional

Row | SMILES | CC50 [µM]
21 | O=C(Nc1cccc2nsnc12)c1cc2c(cc1Cl)Sc1nccn1S2(=O)=O | 95.5

What follows are molecules tested on CCRF-CEM (assay: In vitro total growth inhibition against leukemia CCRF cell lines was reported.). Conditions: Homo sapiens, read-out: Log TGI (converted).
Format: functional

Row | SMILES | TGI [µM]
22 | O=C(Nc1cccc2nsnc12)c1cc2c(cc1Cl)Sc1nccn1S2(=O)=O | 13.5

These molecules were tested on OVCAR-3 (assay: In vitro growth inhibition against ovarian cancer OVCAR-3 cell line was reported.). Conditions: Homo sapiens.
Format: functional

Row | SMILES | GI50 [µM]
23 | O=C(Nc1cccc2nsnc12)c1cc2c(cc1Cl)Sc1nccn1S2(=O)=O | 1.78

What follows are molecules tested on HCT-116 (assay: Log of molar concentration leading to 50% cell death against colon cancer HCT116 cell line was reported). Conditions: Homo sapiens, read-out: Log LC50 (the source's name) (converted).
Format: functional

Row | SMILES | CC50 [µM]
24 | O=C(Nc1cccc2nsnc12)c1cc2c(cc1Cl)Sc1nccn1S2(=O)=O | 12.9

What follows are molecules tested on HCT-15 (assay: In vitro growth inhibition against colon cancer […] cell line was reported.). Conditions: Homo sapiens.
Format: functional

Row | SMILES | GI50 [µM]
25 | O=C(Nc1cccc2nsnc12)c1cc2c(cc1Cl)Sc1nccn1S2(=O)=O | 5.25

These molecules were tested on HCT-116 (assay: In vitro growth inhibition against colon cancer HCT116 cell line was reported.). Conditions: Homo sapiens.
Format: functional

Row | SMILES | GI50 [µM]
26 | O=C(Nc1cccc2nsnc12)c1cc2c(cc1Cl)Sc1nccn1S2(=O)=O | 2.57

The molecules below were run on 786-0 (assay: In vitro growth inhibition against renal cancer […] cell line was reported.). Conditions: Homo sapiens.
Format: functional

Row | SMILES | GI50 [µM]
27 | O=C(Nc1cccc2nsnc12)c1cc2c(cc1Cl)Sc1nccn1S2(=O)=O | 16.6

The molecules below were run on SW-620 (assay: In vitro total growth inhibition against colon cancer SW-620 cell lines was reported.). Conditions: Homo sapiens, read-out: Log TGI (converted).
Format: functional

Row | SMILES | TGI [µM]
28 | O=C(Nc1cccc2nsnc12)c1cc2c(cc1Cl)Sc1nccn1S2(=O)=O | 46.8

These molecules were tested on HL-60 (assay: In vitro total growth inhibition against leukemia HL-60(TB) cell lines was reported.). Conditions: Homo sapiens, read-out: Log TGI (converted).
Format: functional

Row | SMILES | TGI [µM]
29 | O=C(Nc1cccc2nsnc12)c1cc2c(cc1Cl)Sc1nccn1S2(=O)=O | 3.72

Each molecule was assayed on NCI-H23 (assay: In vitro total growth inhibition against non-small-cell lung cancer NCI-H23 cell lines was reported.). Conditions: Homo sapiens, read-out: Log TGI (converted).
Format: functional

Row | SMILES | TGI [µM]
30 | O=C(Nc1cccc2nsnc12)c1cc2c(cc1Cl)Sc1nccn1S2(=O)=O | 25.1

Reference: ChEMBL document CHEMBL1135808, “A new type of mixed anhydride and its applications to the synthesis of 7-substituted 8-chloro-5,5-dioxoimidazo[1,2-b][1,4,2]benzodithiazines with in vitro antitumor activity” (2002)
